Measured values from the NIST ThermoML archive (doi:10.1016/j.fluid.2018.05.029).
Numbers after ± are expanded uncertainties.

details: Liquid; Resistive pulse heating

Row | SMILES | Critical pressure [kPa] | Critical temperature [K]
1 | CN1CCN(C)CC1 [1,4-dimethylpiperazine] | 3730 ± 120 | 606 ± 6
2 | CC1CNCC(C)N1 (stereo not drawn) [2,6-dimethylpiperazine] | 3800 ± 120 | 646 ± 6
3 | O=C1CCCCCN1 [1-aza-2-cycloheptanone] | 4660 ± 140 | 801 ± 8
4 | C[S+](C)[O-] [dimethyl sulfoxide] | 5130 ± 160 | 718 ± 7
